{"source": "patent US20050144659A1", "about": "“Animals and cells containing a mutated alpha2delta gene” (priority 2003, published 2005)", "key": {"[1]": {"test_system": "R217A WT, HET and KI mice and parent strains", "assay": "Vogel water-lick conflict", "format": "in vivo, mouse", "conditions": "for anxiolytic-like effect: R217A knockins", "source_text": "Albino or C57BL/6J-Tyr were also included in the experiments for comparison purposes. Male C57BL/6J (Jackson Laboratories), and 129S6/SvEV (Taconic Farms) mice were received at 8 weeks old in quantities sufficient for each study to be completed in one experiment. Parent strains were housed one week prior to testing.\nOn the side of each chamber (1.5 in. above the floor) a module optical lickometer was mounted. The lickometer was used to measure licking from a drink tube attached to a water bottle mounted on the exterior of the chamber. A photo beam was piped via glass rods across a gap at the end of the drink tube. The subject's tongue breaks the beam when it drinks from the tube and each lick was automatically recorded. […] The reduced chamber space limited the animal's activity and directed behavior towards the drink tube during a 10-minute session. The front and back of the test chamber was made of clear Plexiglas. The front door was covered to reduce distractions from inside the test room. The back of the test chamber faced a wall, away from the flow of traffic in the testing room, and remained uncovered to provide the opportunity for observations. Shock was delivered between the grid floor and the drink tube using a (Coulbourn) programmable universal shocker for a duration of one second, but terminated immediately when contact between the animal and drink tube was broken.\nPROCEDURE: On day one, after 24 hours of water deprivation, experimental subjects were placed in the test chambers and allowed to drink unpunished for a 10-minute training session. Mice were required to complete a 100-150 lick criteria during the training session. […] Immediately after the day one session mice were returned to their home cages and deprived of water and food for an additional 24 hours. On test day two, mice were dosed by intraperitoneal (IP) injection with vehicle or test compound. After a 60 or 120-minute absorption period mice were placed into the test chambers for a 10-minute test session. During the test, shock was delivered on a fixed ratio (FR) 10 schedule. Therefore, after every 10th lick the subject received a mild shock. […] A low number of shock episodes accepted reflects anxiety-related behavior. Standard anxiolytic drugs produce effects that allow mice to overcome the behavioral inhibition and drink despite the shock. […] All data were analyzed using a one-way ANOVA/Dunn's Method.\nDRUGS: Pregabalin was dissolved in physiological saline for all experiments. The positive control diazepam was suspended in 2% cremophor in physiological saline.\nC57BL/6J mice were tested at 0.4 mA, C57BL/6J-Tyr mice were tested at 0.1 mA and 129S6/SvEV mice were tested at 0.6 mA. […]"}, "[2]": {"test_system": "R217A mutant lines and background mouse strains", "assay": "Maximal electroshock procedure (MES)", "format": "in vivo", "conditions": "for responsiveness to anticonvulsant effects: all background strains, mutant, heterozygous mutant and wildtype (all lines)", "procedure": "Anticonvulsant effectiveness was determined by using an electroconvulsive seizure model as described elsewhere [White et al., 1995]. Mice had free access to food and water and were housed in a temperature and light-controlled environment (12 h on/12 h off) prior to drug administration. Electroshock in mice was delivered using corneal electrodes with varied electroshock intensity. Current was delivered (60 Hz sinusoidal current, 11 to 17 mA baseline to peak vs. 50 mA for 0.2 s) using a constant-current stimulator (Wahlquist Instruments, Salt Lake City, Utah). The intensities of current necessary to produce tonic extensor seizures for each mouse strain and mutant lines in all of the mice were determined. These currents were then used for further testing of mice with pregabalin. All dose-response testing was conducted at the previously determined time of peak drug effect. Groups of 10 mice each were give various intraperitoneal doses of pregabalin dissolved in 0.9% saline, diazepam (veh) or phenyloin and given in a volume of 10 ml/kg of body weight. ED50 values (calculated dose required to inhibit the hindlimb tonic-extensor component of the maximal electroshock seizure in 50% of the animals tested) were determined by probit analysis [Litchfield, Wilcoxon], and used to compare relative potency between compounds. At least four groups of mice and each animal was employed once. The animals, pretreated with different doses of the tested drugs, were challenged with one electroshock at previously determined times of peak drug effect (pregabalin: 120 min; diazepam: 60 min; phenyloin; 60 min).\nAnticonvulsant effects of pregabalin were reduced in −/− mice as compared to the +/+mice."}, "[3]": {"test_system": "brain membranes from the R217A mutant mouse", "assay": "3H gabapentin binding to mouse brain membranes", "conditions": "R217A mutant mouse in comparison to wildtype mice; tracer 3H gabapentin; FIG. 3", "experimental": "Membranes were prepared from whole mouse brains. […] Total binding was determined in the absence of competitor. Non-specific binding was determined in the presence of 10 μM unlabeled pregabalin."}, "α2/δ2": {"target": "α2/δ2 (Homo sapiens, UniProt Q9NY47)", "sequence (Q9NY47 19-1150)": "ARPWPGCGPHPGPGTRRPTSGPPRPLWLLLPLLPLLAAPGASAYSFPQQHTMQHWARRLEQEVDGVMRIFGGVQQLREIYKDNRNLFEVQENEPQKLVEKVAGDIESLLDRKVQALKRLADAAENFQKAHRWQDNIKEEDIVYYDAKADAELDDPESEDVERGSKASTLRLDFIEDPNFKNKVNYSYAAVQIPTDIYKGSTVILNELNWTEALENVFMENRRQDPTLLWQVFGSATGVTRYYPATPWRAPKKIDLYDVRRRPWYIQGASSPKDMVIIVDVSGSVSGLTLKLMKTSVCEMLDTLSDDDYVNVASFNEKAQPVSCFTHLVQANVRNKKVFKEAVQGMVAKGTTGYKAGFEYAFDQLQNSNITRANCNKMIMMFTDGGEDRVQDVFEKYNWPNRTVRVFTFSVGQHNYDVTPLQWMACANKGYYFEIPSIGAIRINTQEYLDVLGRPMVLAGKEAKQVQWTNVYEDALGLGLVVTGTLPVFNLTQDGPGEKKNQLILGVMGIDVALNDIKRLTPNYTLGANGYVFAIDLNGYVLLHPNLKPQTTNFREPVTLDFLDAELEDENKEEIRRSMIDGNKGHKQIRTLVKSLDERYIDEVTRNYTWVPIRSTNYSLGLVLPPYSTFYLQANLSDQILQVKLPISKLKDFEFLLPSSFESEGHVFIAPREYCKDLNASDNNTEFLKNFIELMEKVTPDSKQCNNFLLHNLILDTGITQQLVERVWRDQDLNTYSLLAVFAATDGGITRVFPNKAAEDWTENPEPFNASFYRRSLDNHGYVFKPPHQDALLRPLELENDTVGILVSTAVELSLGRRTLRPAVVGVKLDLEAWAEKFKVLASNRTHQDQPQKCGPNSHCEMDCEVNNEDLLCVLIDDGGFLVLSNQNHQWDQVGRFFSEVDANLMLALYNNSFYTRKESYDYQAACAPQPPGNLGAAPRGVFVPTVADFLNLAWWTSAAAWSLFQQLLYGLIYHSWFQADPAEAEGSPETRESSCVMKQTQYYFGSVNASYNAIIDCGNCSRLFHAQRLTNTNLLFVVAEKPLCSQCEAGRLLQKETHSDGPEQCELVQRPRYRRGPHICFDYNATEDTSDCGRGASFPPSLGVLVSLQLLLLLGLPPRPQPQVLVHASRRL", "sequence (Q9NY47 1002-1150 partner limits assumed)": "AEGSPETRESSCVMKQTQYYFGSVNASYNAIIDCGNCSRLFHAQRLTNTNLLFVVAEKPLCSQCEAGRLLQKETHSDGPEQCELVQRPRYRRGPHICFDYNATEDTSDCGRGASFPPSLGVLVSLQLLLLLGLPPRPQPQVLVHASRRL", "conditions": "background statement; cited from earlier work"}, "[4]": {"test_system": "α2/δ1 R217A wild type and homozygous mice", "assay": "Tail Suspension Test (TST)", "format": "in vivo, mouse", "conditions": "R217A homozygous mutant versus wildtype mice; dosed 120 minutes prior to testing; FIG. 5", "procedure": "Male α2/δ1 R217A wild type and homozygous mice, weighing 22-35 grams, were used for testing. Animals were maintained on a 12 hour light/dark cycle with food and water available ad libitum. Animals were food deprived overnight the day before testing. On test day, animals were placed by groups of 8 into holding cages to acclimate for sixty minutes prior to dosing. Vehicle or pregabalin was administered 120 minutes prior to testing at a dose volume of 10 mL/kg. At test time, a piece of transparent tape was placed around the distal portion of the tail. The tape was then attached to a hook connected to an electro-mechanical apparatus that recorded the amount of time a mouse moved and the force used during movement. The hook was located at the top of a 24×18 cm testing chamber. Animals were completely suspended in air approximately 5 cm off the floor of the chamber for six minutes. Mean time of struggling and force of movement were then calculated for each group of eight.\nAnimals are placed by groups of eight into holding cages to acclimate for thirty to sixty minutes prior to dosing. Treatments are generally administered 60 to 120 minutes prior to testing, although this also varies with specific compounds. At test time, a piece of scotch tape is placed around the distal portion of the tail. […]"}, "[5]": {"test_system": "α2/δ1 R217A wild type, heterozygous, and homozygous mice", "assay": "Formalin foot-pad procedure (formalin-induced hyperalgesia)", "format": "in vivo, mouse", "conditions": "mice with arg 217 changed to alanine versus heterozygous and wildtype; PO, 120 minutes prior to testing; FIG. 4", "procedure": "Male α2/δ1 R217A wild type, heterozygous, and homozygous mice, weighing 1940 grams, were used for testing. Animals were maintained on a 12 hour light/dark cycle with food and water available ad libitum. Animals were food deprived overnight the day before testing. On test day, animals were acclimated to the observation chambers for approximately 60 min. The observation chambers were eight inch square boxes consisting of solid, acrylic plastic mirrors for the floor and 3 walls. The fourth wall was clear acrylic that allowed for observation. Animals were dosed PO with either vehicle or pregabalin, 120 minutes prior to testing at a dose volume 10 mL/kg. At test time, animals received a 25 μL injection of a 5% formalin solution in water in the plantar surface of the left hind foot. […] These behaviors were timed using a hand-held stopwatch and recorded at 5 min intervals. Data was analyzed by the two distinct phases of responding. Early phase responding included Minutes 0-10, and late phase responding included Minutes 1145. The total time spent licking by drug-treated animals in each phase was compared to the total time spent licking by vehicle-treated animals.\nFIG. 4 depicts formalin-induced hyperalgesia in R217A mutant homozygous mice in comparison to that of heterozygous and wildtype mice."}, "[6]": {"test_system": "R217A knock-in and wild-type mice", "assay": "Chronic constriction injury (CCI)-induced static allodynia, von Frey hairs", "format": "in vivo, mouse", "conditions": "sub cutaneous 30-100 mg/kg, FIG. 8", "source_text": "Animals were placed in an anaesthetic chamber and anaesthetised with a 2% isofluorane O2 mixture. The right hind thigh is shaved and swabbed with 1% iodine. Animals were then transferred to a homeothermic blanket for the duration of the procedure and anaesthesia maintained during surgery via a nose cone. The skin was cut along the line of the thigh bone. The common sciatic nerve was exposed at the middle of the thigh by blunt dissection through biceps femoris. Proximal to the sciatic trifurcation, about 5 mm of nerve was freed by inserting forceps under the nerve and the nerve gently lifted out of the thigh. The forceps were gently opened and closed several times to aid clearance of the fascia from the nerve. […]\nAnimals were habituated to wire test cages prior to the assessment of allodynia. Static allodynia was evaluated by application of von Frey hairs (Stoelting, Wood Dale, Ill., U.S.A.) in ascending order of force ([…], 0.4, 0.6, 1.0, 1.5 and 2.0 g) to the plantar surface of hind paws. […] The lowest amount of force required to elicit a response was recorded as paw withdrawal threshold (PWT) in grams. […]\nBaseline (BL) paw withdrawal thresholds (PWT) to von Frey hairs were assessed. Following drug administration PWT were re-assessed for up to 4 h. […]"}}}
{"smiles": "CN1C(=O)CN=C(c2ccccc2)c2cc(Cl)ccc21", "note": "[diazepam]", "values": [{"measurement": "anxiolytic-like effect", "setting": "[1]", "value": "Diazepam (+control) failed to produce an anxiolytic-like effect in R217A knockins. Data suggests 129S6-parent strain's genotype may be responsible for pharmacological profile of diazepam"}, {"measurement": "responsiveness to anticonvulsant effects", "setting": "[2]; FIG. 9", "value": "fully responsive"}]}
{"smiles": "O=C1NC(=O)C(c2ccccc2)(c2ccccc2)N1", "note": "[phenyloin]", "values": [{"measurement": "responsiveness to anticonvulsant effects", "setting": "[2]; FIG. 9", "value": "fully responsive"}]}
{"smiles": "NCC1(CC(=O)O)CCCCC1", "note": "[gabapentin, 1-(aminomethyl)cyclohexaneacetic acid]", "values": [{"measurement": "gabapentin binding to brain membranes", "setting": "[3]", "value": "reduced, or greatly abolished"}, {"measurement": "binding affinity", "setting": "α2/δ2", "value": "high affinity"}]}
{"smiles": "CC(C)C[C@H](CN)CC(=O)O", "note": "[pregabalin]", "values": [{"measurement": "sedative and/or anxiolytic effect in TST", "setting": "[4]", "value": "exerts its sedative and/or anxiolytic effect in TST through the α2/δ1 polypeptide"}, {"measurement": "efficacy in formalin-induced hyperalgesia (licking or biting of injected foot)", "setting": "[5]", "value": "reduced efficacy"}, {"measurement": "effect on CCI-induced punctate allodynia (paw withdrawal threshold)", "setting": "[6]; knock-in mice", "value": "no effect"}, {"measurement": "blockade of CCI-induced punctate allodynia (paw withdrawal threshold)", "setting": "[6]; wild type mice", "value": "significant blockade"}, {"measurement": "increase @ 100 (punished responding)", "setting": "[1]; Knockins, shock 0.7 mA, dose 100 (mg/kg IP)", "value": "non-significant"}, {"measurement": "anxiolytic-like effect", "setting": "[1]", "value": "Pregabalin did not produce a significant anxiolytic-like effect in R217A knockins, and no evidence was obtained relating phenotype to particular parent strain"}, {"measurement": "increase in punished licking", "setting": "[1]; knock-in mice homozygous for R217A, compared to wild-type, heterozygous or back-ground strains", "value": "does not produce a statistically significant increase"}, {"measurement": "potency in protecting against seizures", "setting": "[2]; mutant mice versus wild-type, heterozygous or back-ground strains", "value": "less potent"}, {"measurement": "anticonvulsant effects", "setting": "[2]; −/− mice as compared to +/+ mice, FIG. 9", "value": "reduced"}, {"measurement": "sensitivity to effects in MES", "setting": "[2]; −/− mice versus +/+ mice, FIG. 9", "value": "less sensitive"}]}
